According to patent US20170246206A1, “Calcium Formate for Use as a Dietary Supplement” (Wisconsin Alumni Research Foundation, priority 1999, published 2017):
Read-outs that look alike come from different tables or passages of the source.

Legend:
[1] = Description: Twenty 15-day-old weanling rats from Holzmann Company were placed on a an adequate synthetic diet called “Diet 11” (Suda, T., et al., J. Nutr. 100:1049-1052, 1970). This diet is supplemented with vitamins A, D, E and K as described in that paper. Therefore, these are vitamin D-sufficient animals.
The animals were then placed on a basal diet that contains 0.02% calcium, i.e. an extremely low calcium diet. These animals served as controls. Another group were placed on the same diet containing calcium formate, providing calcium at 0.25% of the diet. Another group was supplied calcium formate at 0.47% calcium in the diet, and another group was provided 0.47% calcium in the form of calcium carbonate. Growth of the animals reflects the ability of the animals to utilize calcium. […] 57:449-468 (1955).

Remark: listed apart in the source
[2] = 1% Ca formate in diet, 1 week on diet
[3] = 1% Ca formate in diet, 2 weeks on diet
[4] = 2% Ca formate in diet, 1 week on diet
[5] = 2% Ca formate in diet, 2 weeks on diet
[6] = 3% Ca formate in diet, 1 week on diet
[7] = 3% Ca formate in diet, 2 weeks on diet

Compound: O=C([O-])[O-].[Ca+2] [Calcium Carbonate, calcium carbonate, reference compound]
- Average Body Weight ± S.E.M for 5 Rats ([1]; 0.47% Ca in diet, day 7): 48.6 ± 4.9 Grams
- Average Body Weight ± S.E.M for 5 Rats ([1]; 0.47% Ca in diet, day 14): 80.4 ± 10.4 Grams
- Average Body Weight ± S.E.M for 5 Rats ([1]; 0.47% Ca in diet, day 21): 126.2 ± 11 Grams

Compound: O=C[O-].O=C[O-].[Ca+2] [Calcium Formate, calcium formate]
- Average Body Weight ± S.E.M for 5 Rats ([1]; 0.25% Ca in diet, day 7): 54.3 ± 4.0 Grams
- Average Body Weight ± S.E.M for 5 Rats ([1]; 0.25% Ca in diet, day 14): 84.6 ± 5.5 Grams
- Average Body Weight ± S.E.M for 5 Rats ([1]; 0.25% Ca in diet, day 21): 131.0 ± 5.7 Grams
- Growth in comparison to other treatment groups ([1]; 0.25% calcium as the formate): slightly better growth
- Average Body Weight ± S.E.M for 5 Rats ([1]; 0.47% Ca in diet, day 7): 51.0 ± 10.6 Grams
- Average Body Weight ± S.E.M for 5 Rats ([1]; 0.47% Ca in diet, day 14): 78.0 ± 19^ Grams
- Average Body Weight ± S.E.M for 5 Rats ([1]; 0.47% Ca in diet, day 21): 127 ± 11 Grams
- Ability to supply calcium to experimental rats ([1]; compared with calcium carbonate): at least equal to calcium carbonate
- Serum (mean ± SEM) [2]: 3.25 ± .31 mg %
- Weight [2]: 229 ± 5.5
- Serum Ca (mean ± SEM) [3]: 14.0 ± .51 mg %
- Weight [3]: 211 ± 3.8
- Serum (mean ± SEM) [4]: 2.50 ± .32 mg %
- Weight [4]: 211 ± 6.3
- Serum (mean ± SEM) [5]: 2.7 ± .24 mg %
- Serum Ca (mean ± SEM) [5]: 12.8 ± .94 mg %
- Weight [5]: 198 ± 5.2
- Difference in serum phosphorus between dose levels (2% vs 3% calcium formate in diet): little difference in serum phosphorus
- Serum (mean ± SEM) [6]: 2.5 ± .20 mg %
- Weight [6]: 194 ± 6.5
- Serum (mean ± SEM) [7]: 2.9 ± 0.8 mg %
- Serum Ca (mean ± SEM) [7]: 12.9 ± 1.3 mg %
- Weight [7]: 150 ± 8.0
- Serum phosphorus compared with control rats (all rats supplied with calcium formate (1-3% of diet)): less serum phosphorus than control rats
